Experiment: Measurement of copper on hair after shampoo / rinse-off conditioner / leave-on treatment regimen (ICP-OES)
Details: after 20 regimen cycles, compared to control conditioning shampoo/control rinse-off conditioner
Procedure: All testing are performed on colored hair switches (see Method of Measurement of copper on hair below) weighing approximately 4.0 grams and having a length of approximately 6 inches. The hair switches are commercially available from IHIP (International Hair Importers). Three hair switches per shampoo composition are used. An amount of […] of shampoo is spread via a syringe onto separate hair switch. That is, the dosage is 0.10 g of shampoo per g of hair. Each application consists of adding shampoo to the hair, milking for 30 seconds followed by rinsing for 30 seconds. Shampoo is then reapplied (0.1 g/g), milked for 30 seconds and rinsed for 30 seconds. Excess water is squeezed from the hair switches and left to air dry or treated with a rinse-off conditioner and/or a leave-on treatment composition. […]
In several cases during this inventigation, the rinse-off conditioner treatment is followed by hair treatment with a leave-on treatment composition. Specifically, the appropriate quantity of the leave-on treatment composition is uniformely sprayed or spread onto separate hair switches (dosage of 0.10 g of solution per g of hair). […]
Samples of 100 mg of hair were digested overnight with 2 ml of high purity concentrated nitric acid. […] Copper content of the hair switches was determined by inductively coupled plasma atomic spectroscopy (ICP-OES)). For each leg, 3 different samples were analyzed. […]

## NCCNCCNCCN [2,3-Triethylenetetramine]
  Removal of copper from hair (in words): effective removal of copper from hair
